Experiments:
[1] = target: T1, 5-HT1A serotonin receptor (Rattus norvegicus, UniProt P19327); test: 5-HT1A receptor binding, displacement of [^3 H]8-OHDPAT (procedure of Hall et al., J. Neurochem. 44, 1685 (1985))
T1 construct: from tissue
T1 sequence (P19327 1-422): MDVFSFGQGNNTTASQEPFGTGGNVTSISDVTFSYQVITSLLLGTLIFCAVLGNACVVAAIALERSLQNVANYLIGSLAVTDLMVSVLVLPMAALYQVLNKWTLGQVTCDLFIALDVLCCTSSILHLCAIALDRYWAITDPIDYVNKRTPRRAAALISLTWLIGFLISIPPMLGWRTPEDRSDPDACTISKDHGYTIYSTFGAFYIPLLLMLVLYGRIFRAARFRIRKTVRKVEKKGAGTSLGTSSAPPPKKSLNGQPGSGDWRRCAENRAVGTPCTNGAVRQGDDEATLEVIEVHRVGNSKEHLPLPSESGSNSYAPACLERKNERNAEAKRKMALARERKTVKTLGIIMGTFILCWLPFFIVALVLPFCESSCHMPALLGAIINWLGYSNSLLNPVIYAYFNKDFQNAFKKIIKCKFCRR
Text: High affinity for the serotonin 5-HT1A receptor was established by testing the claimed compound's ability to displace [^3 H]8-OHDPAT (dipropylaminotetralin) from the 5-HT1A serotonin receptor following the procedure of Hall et al., J. Neurochem.

[2] = target: T1, 5-HT1A serotonin receptor; conditions: qualitative statement on reference standard; cited from earlier work

Row | Structure (SMILES) | IC50 [1] [µM] | affinity for the 5-HT1A serotonin receptor subtype of the standard (in words) [2]
1 | C[C@H](CN1CCN(c2cccccc2=O)CC1)Nc1ccccn1 [Example 2, (R)-2-{4-[2-(Pyridin-2-ylamino)-propyyl}-piperazin-1-yl}-cyclohepta-2,4,6trienone] | 0.0198 | 
2 | C[C@H](CN1CCN(c2cccccc2=O)CC1)N(C(=O)C1CCCCC1)c1ccccn1 [Example 4, Cyclohexanecarboxylic acid (R)-{1-methyl-2-[4-(7-oxo-cyclohepta-1,3,5-trienyl)-piperazin-1-yl]-ethyl}-(pyrilin-2-yl)-amide] | 0.351 | 
3 | O=C1CC2(CCCC2)CC(=O)N1CCCCN1CCN(c2ncccn2)CC1 [Buspirone] |  | potent affinity
4 | C[C@H](CN1CCN(c2cccccc2=O)CC1)N(C(=O)C1CC=CCC1)c1ccccn1 (stereo partly drawn) [Example 3, Cyclohex-3-enecarboxylic acid (R)-{1-methyl-2-[4-(7-oxo-cyclohepta-1,3,5-trienyl)-piperazin-1-yl]-ethyl}-(pyridin-2-yl)-amide] | 0.861 | 
5 | O=C(C(CCN1CCN(c2cccccc2=O)CC1)c1ccccc1)N1CCCCCC1 (centres unmarked) [Example 1, 2-[4-(4-Azepan-1-yl-4-oxo-3-phenyl-butyl)-piperazin-1-yl]-cyclohepta-2,4,6-trienone] | 0.0186 | 
